Reference: publication PMC8092326 (mBio, 2021)
Several values for one entry are separate records, joined by “and”; a condition that tells them apart may be missing. Equal values may be shown once. Entries after “also recorded” stand apart in the source; their conditions may differ. Read-outs that look alike come from different tables or passages of the source. *1 amine or outer side, *2 acyl side, *3 side chain or, on linkers, in order; H or OH if unused. Where a SMILES comes first, the peptide text is derived from it. Bridges are numbered along the chain shown (N, C = ends). Roman numbers before positions name the chains, in order. [ ]: non-standard residue; d: D form. Actinocin(9to1) = Cc1c2oc3c(C)ccc(C(=O)[*:1])c3nc-2c(C(=O)[*:2])c(N)c1=O; NMeV = CN[C@H](C(=O)O)C(C)C; Sar = CNCC(=O)O

Legend:
[1] = in vitro; settings: African green monkey
[2] = system: SARS-CoV-2 infection of Vero-E6 cells; assay: Dose-response inhibition of SARS-CoV-2 infection of Vero-E6 cells (24 h, in situ ELISA); format: cell-based; settings: for IC50: Severe acute respiratory syndrome coronavirus 2, Vero C1008, 24 h infection, Vero-E6, MOI 0.12, read-out: IC50 (μM) Mean ± SD; for SI (selectivity index, CC50/IC50): Vero-E6 cells
[3] = system: SARS-CoV-2 infection of Vero-E6 cells; settings: for Screening data: 48 h
[4] = biological target: human ACE2-VLP spike protein interaction (UniProt P0DTC2+Q9BYF1); format: binding, SARS-CoV-2
Chain of human ACE2-VLP spike protein interaction (Q9BYF1 18-740, one chain of several): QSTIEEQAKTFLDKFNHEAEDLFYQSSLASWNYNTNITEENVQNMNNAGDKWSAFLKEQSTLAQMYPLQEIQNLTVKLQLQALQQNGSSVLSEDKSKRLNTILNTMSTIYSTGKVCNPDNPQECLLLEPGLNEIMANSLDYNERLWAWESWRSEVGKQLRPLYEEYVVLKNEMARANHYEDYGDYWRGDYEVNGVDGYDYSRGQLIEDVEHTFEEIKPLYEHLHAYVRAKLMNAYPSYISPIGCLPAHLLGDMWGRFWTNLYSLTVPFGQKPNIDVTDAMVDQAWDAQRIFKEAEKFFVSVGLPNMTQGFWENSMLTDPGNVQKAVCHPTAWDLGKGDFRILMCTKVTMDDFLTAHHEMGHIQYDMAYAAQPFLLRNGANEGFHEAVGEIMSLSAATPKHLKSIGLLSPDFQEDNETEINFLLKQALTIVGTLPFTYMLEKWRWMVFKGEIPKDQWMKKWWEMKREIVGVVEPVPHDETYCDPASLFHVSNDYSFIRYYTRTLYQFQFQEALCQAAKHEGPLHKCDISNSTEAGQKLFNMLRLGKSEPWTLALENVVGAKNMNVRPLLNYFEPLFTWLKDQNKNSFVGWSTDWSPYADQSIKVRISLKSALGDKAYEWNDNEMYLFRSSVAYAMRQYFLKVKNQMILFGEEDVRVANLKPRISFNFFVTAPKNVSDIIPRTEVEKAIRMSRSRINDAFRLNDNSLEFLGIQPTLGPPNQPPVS

[5] = biological target: T1, SARS-CoV-2 spike protein (Severe acute respiratory syndrome coronavirus 2, UniProt P0DTC2); assay: biochemical; format: binding
T1 construct: made in house; host or cells: HEK 293 cells

[6] = cited from earlier work
[7] = biological target: T2, human ACE2 (Homo sapiens, UniProt Q9BYF1); assay: biochemical; format: binding; settings: immobilized recombinant human ACE2; ± one SD; read-out: KD (nM) determined by SPR
T2 construct: purchased Assay Matrix; R&D Systems
T2 sequence (Q9BYF1 18-805): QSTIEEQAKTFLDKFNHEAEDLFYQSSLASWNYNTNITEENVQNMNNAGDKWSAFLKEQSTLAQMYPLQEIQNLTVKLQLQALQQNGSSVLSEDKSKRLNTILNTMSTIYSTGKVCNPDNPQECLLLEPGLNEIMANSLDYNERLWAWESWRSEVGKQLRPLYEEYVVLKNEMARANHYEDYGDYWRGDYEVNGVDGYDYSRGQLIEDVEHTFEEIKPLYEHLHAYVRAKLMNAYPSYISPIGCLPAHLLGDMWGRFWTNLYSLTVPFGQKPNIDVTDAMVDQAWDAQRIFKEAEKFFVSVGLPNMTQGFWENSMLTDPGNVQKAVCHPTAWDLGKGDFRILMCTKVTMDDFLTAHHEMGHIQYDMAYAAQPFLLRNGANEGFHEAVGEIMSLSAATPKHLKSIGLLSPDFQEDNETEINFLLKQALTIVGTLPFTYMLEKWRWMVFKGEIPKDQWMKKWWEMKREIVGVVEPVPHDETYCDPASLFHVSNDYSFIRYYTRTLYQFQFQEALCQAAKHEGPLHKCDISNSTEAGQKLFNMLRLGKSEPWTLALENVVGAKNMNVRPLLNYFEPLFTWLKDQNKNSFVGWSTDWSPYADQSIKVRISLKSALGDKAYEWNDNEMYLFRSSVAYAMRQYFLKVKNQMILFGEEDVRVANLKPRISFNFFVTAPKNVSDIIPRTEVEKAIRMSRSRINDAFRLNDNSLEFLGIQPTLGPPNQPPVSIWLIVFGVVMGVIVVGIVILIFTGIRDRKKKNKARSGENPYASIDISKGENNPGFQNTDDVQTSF

[8] = biological target: T3, RBD-mimic1 peptide-ACE2 interaction (Homo sapiens, UniProt Q9BYF1); assay: SPR competition (ABA injection) between compound and RBD-mimic1 peptide for immobilized ACE2; format: binding; settings: for inhibition at 1 µM: read-out: 1:1 competition between compound vs RBD-mimic1 peptide at 1 μM
T3 construct: purchased Assay Matrix; R&D Systems (ACE2); Mimotopes, Australia (peptide)
T3 sequence (Q9BYF1 18-740 limits assumed): as the sequence (Q9BYF1 18-740, one chain of several) above

[9] = system: human albumin; settings: cited from earlier work
[10] = system: Vero-E6 cells
[11] = indicative of published Cmax values, ref not given, read-out: Cmax

Compound	CC50 [1] [µM]	IC50 [2] [µM]	Screening result at the highest concentration tested [3]	Blocking (%) [4]	Cmax [6, 11] [nM]	Kd [7]	inhibition at 1 µM [8] [%]	1:1 Competition between compound vs CoV2 VLP [4]	further results
Cc1cc(O)c(C(=O)N[C@@H](C(=O)N[C@@H]2C(=O)N3C(C(=O)O)=C(CSc4nnnn4C)CS[C@H]23)c2ccc(O)cc2)cn1 [Cefpiramide]	> 1000	> 1500	active	81.9% and 81.9 ± 8.4%	88000	–	–	–	Activity against SARS-CoV-2 infection in dose-response experiments ([2]; at […]): inactive; Cytotoxicity in screening at the highest concentration tested [3]: no apparent cytotoxicity; Screening data ([3]; 800 μM): 800 μM: ∼50% active; Initial SPR screening for binding to the VLP spike protein [5]: binding; Kd [5]: 0.33 µM; Cmax ([6]; intravenous, maximum dose 2,000 mg, single dose, read-out: Cmax): 205000 nM
COc1cc(-c2ccc(/N=N/c3ccc4c(S(=O)(=O)O)cc(S(=O)(=O)O)c(N)c4c3O)c(OC)c2)ccc1/N=N/c1ccc2c(S(=O)(=O)O)cc(S(=O)(=O)O)c(N)c2c1O [Chicago sky blue]	–	–	–	–	–	349 ± 29.8 nM	2.47	7.29% ± 1.64	–
COc1ccc2c(O[C@@H]3C[C@H]4C(=O)N[C@]5(C(=O)NS(=O)(=O)C6CC6)C[C@H]5/C=C\CCCCN(C)C(=O)[C@@H]4C3)cc(-c3nc(C(C)C)cs3)nc2c1C [Simeprevir]	16.4 ± 0.8	–	toxic	88.6 ± 7.2%	2590	–	–	–	Toxicity to Vero-E6 cells (in words, discussion) [3]: toxic; Screening data ([3]; 10 μM): 100 μM: toxic, 10 μM: inactive; Screening data ([3]; 100 μM): 100 μM: toxic, 10 μM: inactive
CO[C@H]1C[C@@H]2CC[C@@H](C)[C@@](O)(O2)C(=O)C(=O)N2CCCC[C@H]2C(=O)O[C@H]([C@H](C)C[C@@H]2CC[C@H](n3cnnn3)[C@H](OC)C2)CC(=O)[C@H](C)/C=C(\C)[C@@H](O)[C@@H](OC)C(=O)[C@H](C)C[C@H](C)/C=C/C=C/C=C/1C [Zotarolimus]	–	–	–	–	–	2760 ± 178 nM	69.4	71.6% ± 6.47	–
CC1(C)CCC(CN2CCN(c3ccc(C(=O)NS(=O)(=O)c4ccc(NCC5CCOCC5)c([N+](=O)[O-])c4)c(Oc4cnc5[nH]ccc5c4)c3)CC2)=C(c2ccc(Cl)cc2)C1 [Venetoclax]	4.9 ± 2.2	–	toxic	–	2400 ± 1300	290 ± 31.1 nM	66.3	69.1% ± 7.31	Screening result at lower concentrations [3]: inactive; Screening data ([3]; 10 μM): 10 μM: 40 % active
Cc1cc(-c2ccc(/N=N/c3ccc4c(S(=O)(=O)O)cc(S(=O)(=O)O)c(N)c4c3O)c(C)c2)ccc1/N=N/c1ccc2c(S(=O)(=O)O)cc(S(=O)(=O)O)c(N)c2c1O [Evans blue]	> 1000	28.1 ± 1.2	active	78.2 ± 6.3%	–	1.6 nM and 1.63 nM	99.8	98.9% ± 6.43	Affinity for human albumin [9]: low μM range; Cytotoxicity toward Vero-E6 cells ([10]; at 1,000 μM): no cytotoxicity; Cytotoxicity in screening at the highest concentration tested [3]: no apparent cytotoxicity; Inhibition of the RBD-mimic1 peptide-ACE2 interaction (in words) ([8]; 1:1 ratio at 1 μM): complete inhibition; Initial SPR screening for binding to the VLP spike protein [5]: binding
CCc1c2c(nc3ccc(OC(=O)N4CCC(N5CCCCC5)CC4)cc13)-c1cc3c(c(=O)n1C2)COC(=O)[C@]3(O)CC [Irinotecan]	–	–	–	–	–	825 ± 112 nM	100	100% ± 9.17	Toxicity to Vero-E6 cells (in words, discussion) [3]: toxic; Inhibition of the RBD-mimic1 peptide-ACE2 interaction (in words) ([8]; 1:1 ratio at 1 μM): complete inhibition; also recorded: complete blocking
COC(=O)N[C@H](C(=O)N1CC2(CC2)C[C@H]1c1ncc(-c2ccc3c(c2)C(F)(F)c2cc(-c4ccc5nc([C@@H]6[C@H]7CC[C@H](C7)N6C(=O)[C@@H](NC(=O)OC)C(C)C)[nH]c5c4)ccc2-3)[nH]1)C(C)C [Ledipasvir]	> 1000	–	–	–	406	417 ± 50.7 nM	79.4	84.9% ± 7.3	Toxicity to Vero-E6 cells (in words, discussion) [3]: toxic; Screening data ([3]; 400 μM): 400 μM: inactive
Epigallocatechin-3-gallate	–	–	–	–	–	–	–	33.8% ± 4.67	1:1 competition between compound vs RBD-mimic1 peptide at 1 μM ([8]; 1:1 ratio at 1 μM, immobilized ACE2): 28.9% ± 1.43
COC[C@H]1C[C@@H](c2ncc(-c3ccc4c(c3)COc3cc5c(ccc6nc([C@@H]7CC[C@H](C)N7C(=O)[C@@H](NC(=O)OC)C(C)C)[nH]c65)cc3-4)[nH]2)N(C(=O)[C@H](NC(=O)OC)c2ccccc2)C1 [Velpatasvir]	–	–	toxic	–	293 ± 61.2	24.9 ± 4.24 nM	61.4	68.1% ± 9.44	Toxicity to Vero-E6 cells (in words, discussion) [3]: toxic; Screening data ([3]; 100 μM): 500 μM: toxic, 100 μM: inactive; Screening data ([3]; 500 μM): 500 μM: toxic, 100 μM: inactive
Cc1c2oc3c(C)ccc(C(=O)N[C@@H]4C(=O)N[C@H](C(C)C)C(=O)N5CCC[C@H]5C(=O)N(C)CC(=O)N(C)[C@@H](C(C)C)C(=O)O[C@@H]4C)c3nc-2c(C(=O)N[C@@H]2C(=O)N[C@H](C(C)C)C(=O)N3CCC[C@H]3C(=O)N(C)CC(=O)N(C)[C@@H](C(C)C)C(=O)O[C@@H]2C)c(N)c1=O [Dactinomycin] (I: T[dV]P[Sar][NMeV] / II: T[dV]P[Sar][NMeV]; ester I:1-I:C, II:1-II:C; linker I:N-II:N via Actinocin(9to1))	–	–	–	69.7 ± 1.8%	–	–	–	–	Initial SPR screening for binding to the VLP spike protein [5]: binding
N[C@@H](Cc1ccc(O)c(O)c1)C(=O)O [Levodopa]	–	–	–	–	–	13.6 ± 0.97 nM	36.4	42.1% ± 5.17	–
C[C@H]1O[C@@H](O[C@H]2[C@@H](O)C[C@H](O[C@H]3[C@@H](O)C[C@H](O[C@H]4CC[C@@]5(C)[C@H](CC[C@@H]6[C@@H]5CC[C@]5(C)[C@@H](C7=CC(=O)OC7)CC[C@]65O)C4)O[C@@H]3C)O[C@@H]2C)C[C@H](O)[C@@H]1O [Digitoxin]	–	–	–	–	–	1480 ± 87.6 nM	25.1	23.6% ± 4.25	–
Cc1ccc(C(=O)Nc2ccc(S(=O)(=O)O)c3cc(S(=O)(=O)O)cc(S(=O)(=O)O)c23)cc1NC(=O)c1cccc(NC(=O)Nc2cccc(C(=O)Nc3cc(C(=O)Nc4ccc(S(=O)(=O)O)c5cc(S(=O)(=O)O)cc(S(=O)(=O)O)c45)ccc3C)c2)c1 [Suramin]	> 1000	46.2 ± 1.6	–	–	1890	–	–	–	SI (selectivity index, CC50/IC50) [2]: >21.6; Antiviral potency [3]: 100%
CS(=O)(=O)c1cccc(C[C@H](NC(=O)c2c(Cl)cc3c(c2Cl)CCN(C(=O)c2ccc4ccoc4c2)C3)C(=O)O)c1 [Sodium lifitegrast]	> 5000	1300	active	99.8% and 99.8 ± 6.4%	–	–	–	–	Cytotoxicity toward Vero-E6 cells [10]: noncytotoxic; SI (selectivity index, CC50/IC50) [2]: >3.9; Cytotoxicity in screening at the highest concentration tested [3]: no apparent cytotoxicity; Kd [5]: 0.00192 µM; Cmax ([6]; in blood, indicative of published Cmax values, ref not given, read-out: Cmax in blood): 2.7 ± 2.1 nM; Cmax ([6]; in tears, indicative of published Cmax values, ref not given, read-out: Cmax in tears (converted)): 143000 nM
CC#CC(=O)N1CCC[C@H]1c1nc(-c2ccc(C(=O)Nc3ccccn3)cc2)c2c(N)nccn12 [Acalabrutinib]	406 ± 21.2	184	toxic	–	1770	25.7 ± 0.91 nM	77.4	81.2% ± 12.9	SI (selectivity index, CC50/IC50) [2]: 2.2; Screening data ([3]; 100 μM): 100 μM: inactive
C[C@H]1O[C@@H](O[C@H]2[C@@H](O)C[C@H](O[C@H]3[C@@H](O)C[C@H](O[C@H]4CC[C@@]5(C)[C@H](CC[C@@H]6[C@@H]5C[C@@H](O)[C@]5(C)[C@@H](C7=CC(=O)OC7)CC[C@]65O)C4)O[C@@H]3C)O[C@@H]2C)C[C@H](O)[C@@H]1O [Digoxin]	–	–	–	–	–	1250 ± 97.2 nM	27.6	31.5% ± 4.55	–
Cc1ccc(NC(=O)C2(c3ccc4c(c3)OC(F)(F)O4)CC2)nc1-c1cccc(C(=O)O)c1 [Lumacaftor]	314 ± 22.7	84 ± 3.7	active	71.4 ± 3.1%	5420	–	–	–	SI (selectivity index, CC50/IC50) [2]: 3.7; Cytotoxicity in screening at the highest concentration tested [3]: no apparent cytotoxicity; Kd [5]: 1.51 µM
